Results: ChEMBL document CHEMBL5034037, “Synthesis, Characterization, and Preclinical Evaluation of a Small-Molecule Prostate-Specific Membrane Antigen-Targeted Monomethyl Auristatin E Conjugate” (J Med Chem, 2021)
*1 amine or outer side, *2 acyl side, *3 side chain or, on linkers, in order; H or OH if unused. Where a SMILES comes first, the peptide text is derived from it. [ ]: non-standard residue; d: D form. The star is where a group is joined. GluureaLys(ε-3-ClBenzyl) = O=C(O)CC[C@H](NC(=O)N[C@@H](CCCCN(Cc1cccc(Cl)c1)*)C(=O)O)C(=O)O; Dolaproine = CO[C@@H]([C@@H]1CCCN1)[C@@H](C)C(=O)O; Dil = CC[C@H](C)[C@H](NC)[C@@H](CC(=O)O)OC; X1 = O=C(CCCc1cn(CCCN[*:1])nn1)[*:2]; PABC = O=C(OCc1ccc(N[*:1])cc1)[*:2]; X2 = C[C@@H](N*)[C@@H](O)c1ccccc1; Cit = NC(=O)NCCC[C@H](N)C(=O)O; Suc = O=C(CCC(=O)[*:2])[*:1]; NMeV = CN[C@H](C(=O)O)C(C)C; Ahx = NCCCCCC(=O)O

Key:
PC-3 = experiment: Cytotoxicity against human PC-3 cells not expressing PMSA measured using MTT assay; format: functional
[1] = Initial plasma concentration in Wistar rat plasma at 1.5 mg/kg, iv; format: ADME, organism-based
[2] = Stability of compound in pH 5.5 assessed as hydrolysis measured within 96 hrs; format: physicochemical; conditions: buffer, pH 5.5, 96 h
[3] = Acute toxicity in iv dosed Wistar rat assessed as maximum tolerated dose; format: organism-based; conditions: in vivo, read-out: MNTD
[4] = Toxicity in rabbit assessed as morphological changes in spleen at 81 to 122 microg/kg, iv; format: tissue-based, Oryctolagus cuniculus; conditions: in vivo, dose 81-122 µg/kg
[5] = Toxicity in rat assessed as morphological changes in kidney at 150 to 225 microg/kg, iv; format: tissue-based; conditions: in vivo, dose 150-225 µg/kg
[6] = Toxicity in rat assessed as morphological changes in liver at 150 to 225 microg/kg, iv; format: tissue-based; conditions: in vivo, dose 150-225 µg/kg
[7] = Chronic toxicity in rat assessed as change in acidity at […], iv administered once every 3 weeks for 3 months; format: organism-based; conditions: in vivo, 504 h, dose lower 150 mg/kg
[8] = Toxicity in rat assessed as morphological changes in peritoneum at 150 to 225 microg/kg, iv; format: tissue-based; conditions: in vivo, dose 150-225 µg/kg
[9] = Toxicity in rat assessed as morphological changes in loops of colon at 150 to 225 microg/kg, iv; format: tissue-based; conditions: in vivo, dose 150-225 µg/kg
[10] = Toxicity in rabbit assessed as morphological changes in gastric wall mucosa at 81 to 122 microg/kg, iv; parameters: species or system Oryctolagus cuniculus; conditions: in vivo, dose 81-122 µg/kg
[11] = Toxicity in rabbit assessed as morphological changes in duodenum at 81 to 122 microg/kg, iv; format: tissue-based, Oryctolagus cuniculus; conditions: in vivo, dose 81-122 µg/kg
[12] = Toxicity in rat assessed as morphological changes in duodenum at 150 to 225 microg/kg, iv; format: tissue-based; conditions: in vivo, dose 150-225 µg/kg
[13] = Toxicity in rabbit assessed as morphological changes in pancreas at 81 to 122 microg/kg, iv; format: tissue-based, Oryctolagus cuniculus; conditions: in vivo, dose 81-122 µg/kg
[14] = Toxicity in rat assessed as morphological changes in pancreas at 150 to 225 microg/kg, iv; format: tissue-based; conditions: in vivo, dose 150-225 µg/kg
[15] = Toxicity in rat assessed as morphological changes in lungs at 150 to 225 microg/kg, iv; conditions: in vivo, dose 150-225 µg/kg
[16] = Toxicity in rabbit assessed as morphological changes in lungs at 81 to 122 microg/kg, iv; parameters: species or system Oryctolagus cuniculus; conditions: in vivo, dose 81-122 µg/kg
[17] = Toxicity in rat assessed as morphological changes in bronchi at 150 to 225 microg/kg, iv; conditions: in vivo, dose 150-225 µg/kg
[18] = Toxicity in rabbit assessed as morphological changes in mucosa of trachea at 81 to 122 microg/kg, iv; format: tissue-based, Oryctolagus cuniculus; conditions: in vivo, dose 81-122 µg/kg
[19] = Toxicity in rabbit assessed as morphological changes in mucosa of thyroid gland at 81 to 122 microg/kg, iv; format: tissue-based, Oryctolagus cuniculus; conditions: in vivo, dose 81-122 µg/kg
[20] = Toxicity in rat assessed as morphological changes in mucosa of thyroid gland at 150 to 225 microg/kg, iv; format: tissue-based; conditions: in vivo, dose 150-225 µg/kg
[21] = Toxicity in rat assessed as morphological changes in capsule of the kidney at 150 to 225 microg/kg, iv; format: tissue-based; conditions: in vivo, dose 150-225 µg/kg
[22] = Toxicity in rat assessed as morphological changes in adrenal medulla at 150 to 225 microg/kg, iv; conditions: in vivo, dose 150-225 µg/kg
[23] = Toxicity in rabbit assessed as morphological changes in adrenal medulla at 81 to 122 microg/kg, iv; parameters: species or system Oryctolagus cuniculus; conditions: in vivo, dose 81-122 µg/kg
[24] = Toxicity in rat assessed as morphological changes in thymus at 150 to 225 microg/kg, iv; format: tissue-based; conditions: in vivo, dose 150-225 µg/kg
Oryctolagus cuniculus = species: Oryctolagus cuniculus; experiment: Induction of morphological change in heart of rabbit; format: organism-based; conditions: in vivo
[25] = Toxicity in rat assessed as morphological changes in heart at 150 to 225 microg/kg, iv; format: tissue-based; conditions: in vivo, dose 150-225 µg/kg
[26] = Toxicity in rabbit assessed as morphological changes in heart muscle at 81 to 122 microg/kg, iv; format: tissue-based, Oryctolagus cuniculus; conditions: in vivo, dose 81-122 µg/kg
[27] = Toxicity in rat assessed as morphological changes in cerebrum at 150 to 225 microg/kg, iv; format: tissue-based; conditions: in vivo, dose 150-225 µg/kg
[28] = Toxicity in rat assessed as morphological changes in brain gyrus at 150 to 225 microg/kg, iv; format: tissue-based; conditions: in vivo, dose 150-225 µg/kg
[29] = Toxicity in rat assessed as morphological changes in brain sulcus at 150 to 225 microg/kg, iv; format: tissue-based; conditions: in vivo, dose 150-225 µg/kg
[30] = Toxicity in rabbit assessed as morphological changes in cerebral membrane at 81 to 122 microg/kg, iv; parameters: species or system Oryctolagus cuniculus; conditions: in vivo, dose 81-122 µg/kg
[31] = Toxicity in rat assessed as morphological changes in testes at 150 to 225 microg/kg, iv; conditions: in vivo, dose 150-225 µg/kg
[32] = Toxicity in mouse xenografted with human 22Rv1 cells assessed as early fell at 0.6 mg/kg, ip daily treated for 5 days after 18 days of tumor implantation measured upto 10 days; format: organism-based, CWR22R; conditions: in vivo, 120 h, time 5 day
[33] = AUC (0 to t) in rabbit at 0.81 mg/kg, iv; format: ADME, organism-based, Oryctolagus cuniculus; parameters: dose 0.81 mg/kg; conditions: in vivo
[34] = Toxicity in rabbit assessed as change in body weight at 0.3 mg/kg, iv measured after 20 days; format: organism-based, Oryctolagus cuniculus; conditions: in vivo, 480 h, time 20 day
[35] = Half life in Wistar rat at 1.5 mg/kg, iv; format: ADME, organism-based; conditions: in vivo
[36] = Clearance in Wistar rat at 1.5 mg/kg, iv; format: ADME, organism-based; conditions: in vivo
[37] = Mean residence time (0 to t) in Wistar rat at 1.5 mg/kg, iv; format: ADME, organism-based; conditions: in vivo
[38] = Mean residence time in rabbit at 0.81 mg/kg, iv; format: ADME, organism-based, Oryctolagus cuniculus; conditions: in vivo
[39] = Stability of the compound in human liver microsome assessed as half life; format: ADME; conditions: liver microsomes
Cytochrome P450 2C9 = Cytochrome P450 2C9 (Homo sapiens, UniProt P11712); experiment: Drug metabolism assessed as human liver microsome CYP2C9-mediatd metabolism; format: ADME; conditions: microsomes
Cytochrome P450 3A4 = Cytochrome P450 3A4 (Homo sapiens, UniProt P08684); experiment: Drug metabolism assessed as human liver microsome CYP3A4-mediatd metabolism; format: ADME; conditions: microsomes
Salmonella typhimurium [40] = experiment: Mutagenecity in Salmonella typhimurium TA97 in presence of metabolic activation system at 1 ug/ml by Ames test; format: toxicity, organism-based; conditions: salmonella enterica subsp. enterica serovar typhimurium; dose 1 µg/ml
Salmonella typhimurium [41] = experiment: Mutagenecity in Salmonella typhimurium TA98 in presence of metabolic activation system at 10 ug/ml by Ames test; format: toxicity, organism-based; conditions: salmonella enterica subsp. enterica serovar typhimurium; dose 10 µg/ml
Salmonella typhimurium [42] = experiment: Mutagenecity in Salmonella typhimurium TA97 in presence of metabolic activation system at 100 ug/ml by Ames test; format: toxicity, organism-based; conditions: salmonella enterica subsp. enterica serovar typhimurium; dose 100 µg/ml
Salmonella typhimurium [43] = experiment: Mutagenecity in Salmonella typhimurium TA100 without metabolic activation system at 1000 ug/ml by Ames test; format: toxicity, organism-based; conditions: salmonella enterica subsp. enterica serovar typhimurium; dose 1000 µg/ml
Salmonella typhimurium [44] = experiment: Mutagenecity in Salmonella typhimurium TA98 without metabolic activation system at 100 ug/ml by Ames test; format: toxicity, organism-based; conditions: salmonella enterica subsp. enterica serovar typhimurium; dose 100 µg/ml
Salmonella typhimurium [45] = experiment: Mutagenecity in Salmonella typhimurium TA100 without metabolic activation system at 1 ug/ml by Ames test; format: toxicity, organism-based; conditions: salmonella enterica subsp. enterica serovar typhimurium; dose 1 µg/ml
Cathepsin B = Cathepsin B (Homo sapiens, UniProt P07858); experiment: Stability of compound assessed as recombinant cathepsin B (unknown origin) mediated hydrolysis; format: ADME

Sequence of Cytochrome P450 2C9 (P11712 whole entry): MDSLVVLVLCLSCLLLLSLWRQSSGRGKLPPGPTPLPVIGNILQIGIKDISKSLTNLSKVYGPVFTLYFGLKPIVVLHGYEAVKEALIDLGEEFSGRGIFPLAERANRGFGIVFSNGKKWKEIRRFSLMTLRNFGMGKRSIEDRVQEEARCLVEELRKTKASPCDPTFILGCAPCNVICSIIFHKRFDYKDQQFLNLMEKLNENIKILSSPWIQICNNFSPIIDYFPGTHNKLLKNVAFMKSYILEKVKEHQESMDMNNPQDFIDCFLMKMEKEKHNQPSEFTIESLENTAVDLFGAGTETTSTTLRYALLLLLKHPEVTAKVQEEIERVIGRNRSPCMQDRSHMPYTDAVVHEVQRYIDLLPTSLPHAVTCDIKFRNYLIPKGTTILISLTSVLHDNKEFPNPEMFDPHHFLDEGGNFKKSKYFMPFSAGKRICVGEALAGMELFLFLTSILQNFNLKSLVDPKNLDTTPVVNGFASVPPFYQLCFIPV
Sequence of Cytochrome P450 3A4 (P08684 whole entry): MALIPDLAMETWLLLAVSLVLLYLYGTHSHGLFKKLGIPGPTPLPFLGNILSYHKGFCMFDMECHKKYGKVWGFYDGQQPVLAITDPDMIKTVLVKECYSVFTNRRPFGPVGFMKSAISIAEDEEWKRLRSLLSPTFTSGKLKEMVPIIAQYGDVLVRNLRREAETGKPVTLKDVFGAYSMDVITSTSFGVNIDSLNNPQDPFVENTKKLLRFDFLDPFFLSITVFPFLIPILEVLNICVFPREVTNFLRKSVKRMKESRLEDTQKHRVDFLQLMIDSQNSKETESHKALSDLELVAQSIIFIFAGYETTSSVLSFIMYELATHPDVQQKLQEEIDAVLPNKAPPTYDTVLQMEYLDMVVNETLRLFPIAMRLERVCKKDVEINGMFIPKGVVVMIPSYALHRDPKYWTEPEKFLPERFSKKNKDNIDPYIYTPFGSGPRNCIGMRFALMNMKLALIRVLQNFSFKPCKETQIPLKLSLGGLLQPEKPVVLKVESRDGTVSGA

Question: For `CC[C@H](C)[C@@H]([C@@H](CC(=O)N1CCC[C@H]1[C@H](OC)[C@@H](C)C(=O)N[C@H](C)[C@@H](O)c1ccccc1)OC)N(C)C(=O)[C@@H](NC(=O)[C@H](C(C)C)N(C)C(=O)OCc1ccc(NC(=O)[C@H](CCCNC(N)=O)NC(=O)[C@@H](NC(=O)CCCc2cn(CCCNC(=O)[C@H](Cc3ccc(O)cc3)NC(=O)[C@H](Cc3ccccc3)NC(=O)CCC(=O)NCCCCCC(=O)N(CCCC[C@H](NC(=O)N[C@@H](CCC(=O)O)C(=O)O)C(=O)O)Cc3cccc(Cl)c3)nn2)C(C)C)cc1)C(C)C` ({GluureaLys(ε-3-ClBenzyl)-Ahx-Suc}-FY[X1]V[Cit][PABC][NMeV]V[Dil][Dolaproine]-X2), which CC50 (PC-3) is on record?
Answer: 27 nM

Question: And the C0 [1]?
Answer: 31000 ng/mL

Question: And the Stability [2]?
Answer: Stable

Question: And the MTD [3]?
Answer: 4 mg/kg

Question: And the Activity [4]?
Answer: Non-Toxic

Question: And the Activity [5]?
Answer: Non-Toxic

Question: And the Activity [6]?
Answer: Non-Toxic

Question: And the Activity [7]?
Answer: Toxic

Question: And the Activity [8]?
Answer: Non-Toxic

Question: And the Activity [9]?
Answer: Non-Toxic

Question: What about the Activity [10] of the same compound?
Answer: Non-Toxic

Question: What about the Activity [11] of the same compound?
Answer: Non-Toxic

Question: What about the Activity [12] of the same compound?
Answer: Non-Toxic

Question: And the Activity [13]?
Answer: Non-Toxic

Question: And the Activity [14]?
Answer: Non-Toxic

Question: What about the Activity [15] of the same compound?
Answer: Non-Toxic

Question: What about the Activity [16] of the same compound?
Answer: Non-Toxic

Question: And the Activity [17]?
Answer: Non-Toxic

Question: And the Activity [18]?
Answer: Non-Toxic

Question: And the Activity [19]?
Answer: Non-Toxic

Question: And the Activity [20]?
Answer: Non-Toxic

Question: And the Activity [21]?
Answer: Non-Toxic

Question: What about the Activity [22] of the same compound?
Answer: Non-Toxic

Question: And the Activity [23]?
Answer: Non-Toxic

Question: And the Activity [24]?
Answer: Non-Toxic

Question: And the Activity (Oryctolagus cuniculus)?
Answer: Non-Toxic

Question: What about the Activity [25] of the same compound?
Answer: Non-Toxic

Question: What about the Activity [26] of the same compound?
Answer: Non-Toxic

Question: And the Activity [27]?
Answer: Non-Toxic

Question: What about the Activity [28] of the same compound?
Answer: Non-Toxic

Question: What about the Activity [29] of the same compound?
Answer: Non-Toxic

Question: And the Activity [30]?
Answer: Non-Toxic

Question: What about the Activity [31] of the same compound?
Answer: Non-Toxic

Question: And the Activity [32]?
Answer: Toxic

Question: What about the AUC(0-t) [33] of the same compound?
Answer: 31000 ng·h/mL

Question: What about the Activity [34] of the same compound?
Answer: Non-Toxic

Question: What about the half-life [35] of the same compound?
Answer: 4.7 h

Question: What about the clearance [36] of the same compound?
Answer: 0.317 mL/min/kg

Question: What about the MRT last [37] of the same compound?
Answer: 3.8 h

Question: And the MRT [38]?
Answer: 3.4 h

Question: And the half-life [39]?
Answer: 0.572 h

Question: And the Drug metabolism (Cytochrome P450 2C9)?
Answer: Metabolite_Notdetected

Question: And the Drug metabolism (Cytochrome P450 3A4)?
Answer: Metabolite_Notdetected

Question: And the Activity (Salmonella typhimurium [40])?
Answer: Non-Toxic

Question: And the Activity (Salmonella typhimurium [41])?
Answer: Non-Toxic

Question: What about the Activity (Salmonella typhimurium [42]) of the same compound?
Answer: Non-Toxic

Question: And the Activity (Salmonella typhimurium [43])?
Answer: Non-Toxic

Question: What about the Activity (Salmonella typhimurium [44]) of the same compound?
Answer: Non-Toxic

Question: What about the Activity (Salmonella typhimurium [45]) of the same compound?
Answer: Non-Toxic

Question: And the Stability (Cathepsin B)?
Answer: Stable
